Measurements published in ChEMBL document CHEMBL1687763 (2010).
In brackets after ≈: the same amount, converted by molar mass.

Assays:
[1] = system: Staphylococcus aureus; assay: Antimicrobial activity against methicillin-resistant Staphylococcus aureus isolate 55 after 24 hrs by agar dilution method; conditions: isolate 55, 24 h
[2] = system: Staphylococcus aureus; assay: Antimicrobial activity against methicillin-resistant Staphylococcus aureus isolate 56 after 24 hrs by agar dilution method; conditions: isolate 56, 24 h
[3] = system: Staphylococcus aureus; assay: Antimicrobial activity against glycopeptide-susceptible Staphylococcus aureus NRS3 by tube macrodilution method
[4] = system: Staphylococcus aureus; assay: Antimicrobial activity against methicillin-resistant Staphylococcus aureus isolate 55 after 24 hrs by macrodilution method; conditions: isolate 55, 24 h
[5] = system: Staphylococcus aureus; assay: Antimicrobial activity against methicillin-resistant Staphylococcus aureus isolate 56 after 24 hrs by macrodilution method; conditions: isolate 56, 24 h
[6] = system: Staphylococcus aureus; assay: Antimicrobial activity against methicillin-resistant Staphylococcus aureus isolate 55 after 48 hrs by agar dilution method; conditions: isolate 55, 48 h
[7] = system: Staphylococcus aureus; assay: Antimicrobial activity against methicillin-resistant Staphylococcus aureus isolate 56 after 48 hrs by agar dilution method; conditions: isolate 56, 48 h
[8] = system: Staphylococcus aureus; assay: Antimicrobial activity against methicillin-resistant Staphylococcus aureus isolate 55 after 48 hrs by macrodilution method; conditions: isolate 55, 48 h
[9] = system: Staphylococcus aureus; assay: Antimicrobial activity against methicillin-resistant Staphylococcus aureus isolate 56 after 48 hrs by macrodilution method; conditions: isolate 56, 48 h
[10] = system: Staphylococcus aureus; assay: Antimicrobial activity against methicillin-resistant Staphylococcus aureus isolate 55 grown on brain heart infusion media after 48 hrs by macrodilution method; conditions: isolate 55, 48 h
[11] = system: Staphylococcus aureus; assay: Antimicrobial activity against methicillin-resistant Staphylococcus aureus isolate 56 grown on brain heart infusion media after 48 hrs by macrodilution method; conditions: isolate 56, 48 h
[12] = system: Staphylococcus aureus; assay: Antimicrobial activity against methicillin-resistant Staphylococcus aureus isolate 55 grown on CAMHB media after 48 hrs by tube macrodilution method; conditions: isolate 55, 48 h
[13] = system: Staphylococcus aureus; assay: Antimicrobial activity against methicillin-resistant Staphylococcus aureus isolate 56 grown on CAMHB media after 48 hrs by tube macrodilution method; conditions: isolate 56, 48 h
[14] = system: Staphylococcus aureus; assay: Antimicrobial activity against heterogenous glycopeptide-intermediate resistant Staphylococcus aureus Mu3-D grown on brain heart infusion media after 48 hrs by tube macrodilution method
[15] = system: Staphylococcus aureus; assay: Antimicrobial activity against methicillin-resistant Staphylococcus aureus isolate 1 by broth microdilution method
[16] = system: Staphylococcus aureus; assay: Antimicrobial activity against methicillin-resistant Staphylococcus aureus isolate 6 by broth microdilution method
[17] = system: Staphylococcus aureus; assay: Antimicrobial activity against methicillin-resistant Staphylococcus aureus isolate 8 by broth microdilution method
[18] = system: Staphylococcus aureus; assay: Antimicrobial activity against methicillin-resistant Staphylococcus aureus isolate 12 by broth microdilution method

CN[C@H](CC(C)C)C(=O)N[C@H]1C(=O)N[C@@H](CC(N)=O)C(=O)N[C@H]2C(=O)N[C@H]3C(=O)N[C@H](C(=O)N[C@H](C(=O)O)c4cc(O)cc(O)c4-c4cc3ccc4O)[C@H](O)c3ccc(c(Cl)c3)Oc3cc2cc(c3O[C@@H]2O[C@H](CO)[C@@H](O)[C@H](O)[C@H]2O[C@H]2C[C@](C)(N)[C@H](O)[C@H](C)O2)Oc2ccc(cc2Cl)[C@H]1O [VANCOMYCIN]
MIC [1]: 8 µg/mL (≈ 5.52 µM)
MIC [2]: 8 µg/mL (≈ 5.52 µM)
MIC [3]: ≥ 8 µg/mL
MIC [4]: 8 µg/mL (≈ 5.52 µM)
MIC [5]: 8 µg/mL (≈ 5.52 µM)
MIC [6]: 8 µg/mL (≈ 5.52 µM)
MIC [7]: 8 µg/mL (≈ 5.52 µM)
MIC [8]: 8 µg/mL (≈ 5.52 µM)
MIC [9]: 8 µg/mL (≈ 5.52 µM)
MIC [10]: 8 µg/mL (≈ 5.52 µM)
MIC [11]: 8 µg/mL (≈ 5.52 µM)
MIC [12]: 8 µg/mL (≈ 5.52 µM)
MIC [13]: 8 µg/mL (≈ 5.52 µM)
MIC [14]: 4 µg/mL (≈ 2.76 µM)
MIC [15]: 0.25 µg/mL (≈ 0.173 µM)
MIC [16]: 0.25 µg/mL (≈ 0.173 µM)
MIC [17]: 0.25 µg/mL (≈ 0.173 µM)
MIC [18]: 0.25 µg/mL (≈ 0.173 µM)
